EC50 data for 57 compounds are collected here from PubChem BioAssay AID488808 (NMMLSC, 2010).

The structures appear in SMILES notation. pEC50: −log10 of the molar value. Active and inactive are the calls of the source.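 The calls were made as follows: active = EC50 at or below 33 microM; inactive = the rest.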

For this experiment, the system named is S. cerevisiae RPL19A-GFP strain, flow cytometry fluorescence, 3 h. Nature of the experiment: yeast TOR reporter RPL19A-GFP, SAR compounds – cell-based, S. cerevisiae, flow cytometry, KU SAR compounds, SAR follow-up (AID 488808). In general terms: A flow cytometer gives signals particle by particle.
On to `Cc1ccc(C(=O)NNC(=S)NC(=O)COc2ccccc2)cc1`, for which the EC50 was 52.7 µM (inactive).
Regarding `Cc1ccc2nc(Cl)c3nnnn3c2c1`, the pEC50 is 5.68.
The same measure, in the same setting: the result for `C[C@@H]1C[C@@H]([C@H](O)CC2CC(=O)NC(=O)C2)C(=O)[C@@H](C)C1` reads 6.06; that for `COc1ccc(/C=C/C(=O)NC(=S)NNC(=O)c2cnccn2)cc1`, 4.94.
On to `CCC(C)Nc1nc(N)c([N+](=O)[O-])c(Nc2cccc(F)c2)n1` (configuration not stated), for which the EC50 is 50 µM (inactive).
For `O=C(OCC(=O)N1CCN(C(=O)c2ccco2)CC1)c1cc(-c2ccc(F)cc2)nc2ccccc12`, the pEC50 is 5.52.
The same measure, in the same setting: the result for `C[C@H]1C[C@@H](C)C(=O)[C@@H]([C@H](O)CC2CC(=O)NC(=O)C2)C1` reads 6.38.
With `COc1ccc([N+](=O)[O-])c(S(=O)(=O)c2ccccc2)n1`, the EC50 is 35.4 µM (inactive).
On to `CC(C)(C)C(=O)C(Cl)C(=O)Nc1ccccc1` (configuration not stated), for which the pEC50 was 5.38.
On the same count and under the same terms, the result for `Cc1nn2c(-c3ccncc3)nnc2c2ccccc12` reads 5.34.
The same measure, in the same setting: with `CCOC(=O)CS(=O)(=O)c1nc(-c2ccccc2)cc(C(F)(F)F)n1` the figure was 4.52.
For `O=C(NC(=S)NNC(=O)c1cnccn1)c1ccc(F)cc1`, the pEC50 was 5.44.
As for `Nc1cc(Oc2cccc(Cl)c2)nc(NCc2ccccc2)n1`, the EC50 was 252 µM (inactive).
With `CC(C)(C)n1nc(-c2ccc(F)cc2)c2c(N)ncnc21`, the pEC50 was 6.00.
Take `O=[N+]([O-])c1ccc(O)c2ncccc12`: the pEC50 was 4.60.
For the compound `Cc1cc(C(=O)Nc2nc(-c3ccccn3)cs2)ccc1[N+](=O)[O-]`, the EC50 was 85.3 µM (inactive).
Same read-out and setting: the result for `CN1CCN(C(=O)c2cc(COc3c(F)cccc3F)on2)CC1c1ccccc1` (configuration not stated) reads 58.4 µM (inactive).
For `CCOC(=O)CSC1=NC(=O)/C(=C\c2ccc(Cl)cc2)S1`, the pEC50 was 4.80.
Still for that read-out and setting: the result for `CC(C)(C)c1ccc(NC(=O)COC(=O)c2ccc([N+](=O)[O-])s2)cc1` reads 5.69.
Turning to `c1ccc(-c2cccc(-c3ccccn3)n2)nc1`, the EC50 was 49.9 µM (inactive).
With `O=C(OCC(=O)N1CCN(C(=O)c2ccco2)CC1)c1cc(-c2cccc(Br)c2)nc2ccccc12`, the pEC50 was 5.09.
Same read-out and setting: with `Cc1cc(C(=O)COC(=O)c2ccc[nH]c2=O)c(C)n1-c1ccccc1F` the figure was 5.48; with `CNc1nc(N)c([N+](=O)[O-])c(Nc2cccc(F)c2)n1`, 5.28; with `CCc1ccc(OCC(=O)NNC(=S)NC(=O)C2CC2)c(Br)c1`, 5.56.
Consider `Nc1cc(Nc2cccc(F)c2)nc(NCc2ccccc2)n1`, for which the EC50 is 292 µM (inactive).
On the same count and under the same terms, the result for `Cc1ccc(S(=O)(=O)c2ncccc2[N+](=O)[O-])cc1` reads 68.6 µM (inactive); that for `CCOC(=O)CCS(=O)(=O)c1nc(-c2ccccc2)cc(C(F)(F)F)n1`, 47.9 µM (inactive).
As for `O=C(OCn1ncc(Br)c(Br)c1=O)c1c(F)cccc1F`, the pEC50 was 5.45.
In the case of `O=C(Oc1c(Cl)cc(Cl)c2cccnc12)c1cccc([N+](=O)[O-])c1`, the EC50 is 59.9 µM (inactive).
With `O=[N+]([O-])c1cc(S(=O)(=O)C(F)(F)F)ccc1Sc1nc2ccccc2s1`, the pEC50 is 4.76.
Consider `Cc1ccc(S(=O)(=O)c2ccc([N+](=O)[O-])cn2)cc1`, for which the pEC50 was 5.42.
Same read-out and setting: the result for `COc1ccc(C(=O)NC(=S)NNC(=O)c2cnccn2)cc1` reads 6.15; that for `O=[N+]([O-])c1ccc(S(=O)(=O)c2cccc(C(F)(F)F)c2)nc1`, 5.86.
`CN(C)CCCNc1nc(N)c([N+](=O)[O-])c(Nc2cccc(F)c2)n1`: the EC50 is 106 µM (inactive).
Regarding `O=S(=O)(CCN(CCS(=O)(=O)C(F)(F)F)CC1CCCO1)C(F)(F)F` (configuration not stated), the pEC50 was 4.66.
Turning to `O=[N+]([O-])c1cc(Cl)c2cccnc2c1O`, the pEC50 was 4.57.
For `CC(C)(C)n1nc(-c2ccc(Cl)cc2)c2c(N)ncnc21`, the pEC50 was 6.38.
Still for that read-out and setting: with `O=C(OCn1ncc(Br)c(Br)c1=O)c1ccc(F)cc1` the figure was 5.34; with `Cc1ccc(-c2nn(C(C)(C)C)c3ncnc(N)c23)cc1`, 5.92; with `O=C(Oc1ccnc2cc(Cl)ccc12)N1CCCCCC1`, 4.78.
On the same count and under the same terms, with `CC(Oc1ccc(Cl)cc1)C(=O)NNC(=S)NC(=O)c1ccco1` (configuration not stated) the figure was 5.45; with `Cc1ccc(NC(=O)c2ccc(Cl)c(N3C(=O)C=CC3=O)c2)cc1`, 5.52; with `CC(=O)Nc1ncnc2c1c(-c1ccc(Cl)cc1)nn2C(C)(C)C`, 4.94.
As for `CC(C)(C)C(=O)NC(=S)NNC(=O)c1ccc(-c2ccccc2)cc1`, the pEC50 is 4.52.
Regarding `CSc1nnc2c3cc(F)ccc3n(C)c2n1`, the pEC50 is 5.94.
As for `COC(=O)CCS(=O)(=O)c1nc(-c2ccccc2)cc(C(F)(F)F)n1`, the EC50 is 66.5 µM (inactive).
For `CCN(CC)C(=O)Oc1ccnc2cc(Cl)ccc12`, the EC50 is 119 µM (inactive).
Turning to `CCOC(=O)c1c(C)oc2c1c(C(c1cccnc1)N1CCOCC1)c(O)c1ccccc12` (configuration not stated), the pEC50 is 5.56.
With `Clc1ccc(N=c2ssnc2Cl)cc1`, the pEC50 was 5.69.
On to `COc1ccc([N+](=O)[O-])c(S(=O)(=O)c2ccc(Cl)cc2)n1`, for which the pEC50 is 5.35.
Take `Cc1ccc(NC(=O)c2cc(N3C(=O)C=CC3=O)ccc2N2CCOCC2)cc1Cl`: the negative logarithm of the EC50 (pEC50) was 6.11.
As for `CNc1nc(N)c([N+](=O)[O-])c(Nc2cc(OC)ccc2OC)n1`, the pEC50 is 5.52.
On the same count and under the same terms, with `O=c1cc(CSc2ccc(Cl)cc2)nc(-c2ccccn2)[nH]1` the figure was 5.90.
Take `C/C(=N\NC(=O)c1ccc(C(C)(C)C)cc1)c1ccccn1`: the EC50 was 293 µM (inactive).
As for `CC1=NN(c2ccccc2)C(=O)C1C(c1ccccc1[N+](=O)[O-])C(C#N)C#N` (configuration not stated), the negative logarithm of the EC50 (pEC50) is 5.44.
On the same count and under the same terms, with `Cn1ncc(S(=O)(=O)Cc2ccccc2)c(Cl)c1=O` the figure was 5.56.
As for `CSC1=NS(=O)(=O)c2c(C)nn(C)c2S1`, the EC50 is 175 µM (inactive).

Broadly, the EC50 is the concentration at which the effect is half-maximal. As a reminder, the pEC50 is −log10 of the EC50, conventionally taken in molar units.
